Measurements taken from the NIST ThermoML archive (doi:10.1016/j.jct.2013.06.009).

Assays:
[1] = wn = mass fraction of the nth substance listed; conditions: 101.33 kPa, Liquid, w1 = 0.009; for viscosity: Capillary tube (Ostwald / Ubbelohde) method; for mass density: Vibrating tube method
[2] = 101.33 kPa, Liquid; for viscosity: Capillary tube (Ostwald / Ubbelohde) method; for mass density: Vibrating tube method
[3] = mn = molality of the nth substance listed, in mol/kg; conditions: 101.33 kPa, Liquid, m2 = 0; for viscosity: Capillary tube (Ostwald / Ubbelohde) method; for mass density: Vibrating tube method

[Cl-].[Na+] [sodium chloride] + O
[1]
Conditions	mass density [kg/m3]	viscosity [mPa·s]
278.15 K	1006.09	1.53
283.15 K	1005.64	1.321
288.15 K	1005.07	1.154
293.15 K	1004.14	1.015
298.15 K	1002.96	0.9068
303.15 K	1001.47	0.8105
308.15 K	999.75	0.7363
313.15 K	997.82	0.6641

O [water]
[2]
Conditions	mass density [kg/m3]	viscosity [mPa·s]
278.15 K	999.96	1.521
283.15 K	999.7	1.307
288.15 K	–	1.135
293.15 K	–	1.002
298.15 K	–	0.8903
303.15 K	–	0.7977
308.15 K	–	0.719
313.15 K	–	0.6532

O [water] + CO/N=C(\C(=O)N[C@@H]1C(=O)N2C(C(=O)O)=C(C[N+]3(C)CCCC3)CS[C@H]12)c1csc(N)n1.Cl.[Cl-]
[3]
Conditions	mass density [kg/m3]	viscosity [mPa·s]
278.15 K	999.96	1.521
283.15 K	999.7	1.307
288.15 K	–	1.135
293.15 K	–	1.002
298.15 K	–	0.8903
303.15 K	–	0.7977
308.15 K	–	0.719
313.15 K	–	0.6532
